Holding throughout (format): cell-based
The subject of assay [1] is B-lymphocyte cancer cells (SU-DHL4). As to the kind of experiment: In vitro potency (CellTiter-Glo, 96 h) on SU-DHL4. As to conditions: Homo sapiens, SU-DHL-4, 96 h, read-out: SU-DHL-4 IC50. Summed up: (§1)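 Log-phase cells were seeded 24 h in RPMI 1640 with 20% FBS, then exposed to serially diluted […] for 96 h. Growth inhibition was measured by CellTiter-Glo luminescence.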

The subject of assay [2] is anaplastic large cell lymphoma cells (DEL). In words: In vitro potency (CellTiter-Glo, 96 h) on DEL. As to conditions: 96 h, read-out: DEL IC50. The gist of the method: as §1
Assay [3] deals with renal carcinoma cells (786-O). In words: In vitro potency (CellTiter-Glo, 96 h) on 786-O. To be noted: Homo sapiens, 786-0, 96 h, read-out: 786-O IC50. Summed up:
as §1

A short description of assay [4]: In vitro potency (CellTiter-Glo, 96 h) on Ls174T. To be noted: Homo sapiens, LS174T, read-out: Ls174T IC50. The gist of the method:
as §1

Assay [5] concerns breast cancer cells (MDA-MB-231). In words: In vitro potency (CellTiter-Glo, 96 h) on MDA-MB-231. As to conditions: Homo sapiens, MDA-MB-231, 96 h, read-out: MDAMB 231 IC50. Summed up:
as §1

In assay [6] the test system is Hodgkin's lymphoma cells (L540cy). In words: In vitro potency (CellTiter-Glo, 96 h) on L540cy. To be noted: L540cy, 96 h, read-out: L540cy IC50. The gist of the method:
as §1

Assay [7] deals with non-small-cell lung cancer cells (Calu1). As to the kind of experiment: In vitro potency (CellTiter-Glo, 96 h) on Calu1. To be noted: Homo sapiens, Calu-1, 96 h, read-out: Calu1 IC50. On the procedure:
(§2) In vitro potency was assessed on multiple cancer cell lines. All cell lines were authenticated by STR profiling at IDEXX Bioresearch and cultured for no more than 2 months after resuscitation. Cells cultured in log-phase growth were seeded for 24 hours in 96-well plates containing […] RPMI 1640 supplemented with 20% FBS. Serial dilutions of antibody-drug conjugates in cell culture media were prepared at 4x working concentrations, and 50 μL of each dilution was added to the 96-well plates. Following addition of test articles, cells were incubated with test articles for 4 days at […]. After 96 hours, growth inhibition was assessed by CellTiterGlo® (Promega, Madison, WI) and luminescence was measured on a plate reader.
(§3) Cell viability was determined by CellTiter-Glo staining after 96h exposure to ADC. ND=Not Determined. In the following tables, “Ex_” refers to a drug linker number. For example, “Ag4-Ex_4a” refers to a conjugate of an Ag4 antibody with drug linker 4a.

Assay [8] relates to acute myeloid leukemia cells (MOLM-13). As to the kind of experiment: In vitro potency (CellTiter-Glo, 96 h) on MOLM-13. As to conditions: Homo sapiens, MOLM-13, 96 h, read-out: MOLM-13 IC50. The gist of the method:
as §1

The test system of another assay is melanoma cells (A2058). As to the kind of experiment: In vitro potency (CellTiter-Glo, 96 h) on A2058. To be noted: Homo sapiens, A2058, 96 h, read-out: A2058 IC50. On the procedure: as §2, §3
The subject of assay [9] is pancreatic cancer cells (BxPC3). As to the kind of experiment: In vitro potency (CellTiter-Glo, 96 h) on BxPC3. To be noted: Homo sapiens, BXPC-3, 96 h, read-out: BxPC3 IC50. Summed up:
as §1

Assay [10] concerns anaplastic large cell lymphoma cells (Karpas299). As to the kind of experiment: In vitro potency (CellTiter-Glo, 96 h) on Karpas299. To be noted: Homo sapiens, KARPAS-299, 96 h, read-out: Karpas299 IC50. The gist of the method: as §1
Assay [11] concerns anaplastic large cell lymphoma cells (DELBVR). As to the kind of experiment: In vitro potency (CellTiter-Glo, 96 h) on DELBVR. As to conditions: 96 h, read-out: DELBVR IC50. Summed up: as §1
Where [12] appears, read: CPT free drugs, CellTiter-Glo after 96 h exposure.

SMILES strings stand for the structures. Like-named read-outs stand apart in the source and are kept apart here.

Regarding `CC[C@@]1(O)C(=O)OCc2c1cc1n(c2=O)Cc2c-1nc1ccc3c(c1c2CN)SCC3` [Compound 2av], the IC50 in assay [1] (setting [12]) turned out to be 8 nM; in assay [2] (setting [12]), 5 nM; in assay [3] (setting [12]), 22 nM; in assay [4] (setting [12]) it was 11 nM; in assay [5] (setting [12]), 9 nM; in [6] (setting [12]) it was 5 nM. Moreover, the IC50 in assay [7] (setting [12]) was found to be 25 nM; in [8] (setting [12]), 236 nM; with melanoma cells (A2058) (setting [12]), 4 nM; in assay [9] (setting [12]), 34 nM; in [10] (setting [12]), 26 nM; in assay [11] (setting [12]) it was 4 nM.

Regarding `CC[C@@]1(O)C(=O)OCc2c1cc1n(c2=O)Cc2c-1nc1cc3c(cc1c2CN)CCO3` [Compound 2n, (5S)-14-(aminomethyl)-5-ethyl-5-hydroxy-7,20-dioxa-11,24-diazahexacyclo[11.11.0.02,11.04,9.015,23.017,21]tetracosa-1(24),2,4(9),13,15(23),16,21-heptaene-6,10-dione;2,2,2-trifluoroacetic acid], the IC50 came to 1 nM in [1]; 1 nM in assay [2]; 5 nM in assay [3]; 4 nM in [4] (96 h); 8 nM in assay [5]; 2 nM in assay [6]. In addition, the 50% inhibitory concentration (IC50) came to 18 nM in [7]; 29 nM in [8]; 3 nM with melanoma cells (A2058); 3 nM in [9]; 5 nM in [10]; 1 nM in [11].

Regarding `CC[C@@]1(O)C(=O)OCc2c1cc1n(c2=O)Cc2c-1nc1cc(F)c(C)c(C3=CCCCC3)c1c2CN` [Compound 6b], the IC50 in assay [1] (setting [12]) was determined as 9 nM; in assay [2] (setting [12]), 5 nM; in assay [3] (setting [12]), 23 nM; in assay [4] (setting [12]) it was 85 nM; in assay [5] (setting [12]), 35 nM; in [6] (setting [12]), 13 nM. The IC50 worked out at 32 nM in [7] (setting [12]); 9 nM in assay [8] (setting [12]); 15 nM in the assay on melanoma cells (A2058) (setting [12]); 18 nM in [9] (setting [12]); 14 nM in assay [10] (setting [12]); 5 nM in assay [11] (setting [12]).

For the molecule `CC[C@@]1(O)C(=O)OCc2c1cc1n(c2=O)Cc2c-1nc1cc3c(cc1c2CN)CCS3` [Compound 2ar], the IC50 worked out at 13 nM in assay [1] (setting [12]); 7 nM in [2] (setting [12]); 26 nM in [3] (setting [12]); 14 nM in assay [4] (setting [12]); 14 nM in assay [5] (setting [12]); 4 nM in [6] (setting [12]). Also, the IC50 came out at 26 nM in assay [7] (setting [12]); 258 nM in [8] (setting [12]); 7 nM in the assay with melanoma cells (A2058) (setting [12]); 43 nM in assay [9] (setting [12]); 29 nM in assay [10] (setting [12]); 5 nM in [11] (setting [12]).

With `C=C(C)c1ccc2nc3c(c(CN)c2c1)Cn1c-3cc2c(c1=O)COC(=O)[C@]2(O)CC` [Compound 33a], the concentration for half-maximal inhibition (IC50) in assay [1] (setting [12]) is 14 nM; in assay [2] (setting [12]), 7 nM; in assay [3] (setting [12]), 34 nM; in assay [4] (setting [12]) it was 18 nM; in [5] (setting [12]), 36 nM; in [6] (setting [12]), 21 nM. Also, the IC50 in assay [7] (setting [12]) came to 120 nM; in assay [8] (setting [12]) it was 258 nM; in the assay with melanoma cells (A2058) (setting [12]) it was 18 nM; in [9] (setting [12]), 50 nM; in assay [10] (setting [12]), 28 nM; in assay [11] (setting [12]), 12 nM.

For `CC[C@@]1(O)C(=O)OCc2c1cc1n(c2=O)Cc2c-1nc1cc3c(cc1c2CO)CCO3` [Compound 35], the 50% inhibitory concentration (IC50) in assay [1] came out at 1 nM; in assay [2] it was 0.6 nM; in assay [3] it was 4 nM; in assay [4] (96 h), 3 nM; in assay [5], 5 nM; in assay [6], 2 nM. The IC50 came out at 9 nM in assay [7]; 22 nM in [8]; 2 nM in the assay on melanoma cells (A2058); 6 nM in assay [9]; 4 nM in assay [10]; 1 nM in [11].

On to `CC[C@@]1(O)C(=O)OCc2c1cc1n(c2=O)Cc2c-1nc1cc(F)c3c(c1c2CN)CCC3` [Compound 2as], for which the IC50 in assay [1] (setting [12]) was determined as 2 nM; in assay [2] (setting [12]), 1 nM; in assay [3] (setting [12]), 3 nM; in assay [4] (setting [12]) it was 2 nM; in assay [5] (setting [12]), 1 nM; in assay [6] (setting [12]) it was 1 nM. For the same molecule, the IC50 in assay [7] (setting [12]) was determined as 4 nM; in [8] (setting [12]), 51 nM; with melanoma cells (A2058) (setting [12]), 3 nM; in assay [9] (setting [12]), 5 nM; in [10] (setting [12]), 3 nM; in assay [11] (setting [12]) it was 1 nM.

On to `CC[C@@]1(O)C(=O)OCc2c1cc1n(c2=O)Cc2c-1nc1ccc3c(c1c2CN)COC3` [Compound 2aq], for which the IC50 stood at 5 nM in assay [1] (setting [12]); 2 nM in assay [2] (setting [12]); 11 nM in [3] (setting [12]); 12 nM in assay [4] (setting [12]); 12 nM in assay [5] (setting [12]); 4 nM in assay [6] (setting [12]). Besides, the IC50 in [7] (setting [12]) turned out to be 1 nM; in [8] (setting [12]) it was 39 nM; in the assay on melanoma cells (A2058) (setting [12]) it was 18 nM; in assay [9] (setting [12]), 27 nM; in assay [10] (setting [12]) it was 7 nM; in [11] (setting [12]), 3 nM.

With `CCc1c(C)c(F)cc2nc3c(c(CN)c12)Cn1c-3cc2c(c1=O)COC(=O)[C@]2(O)CC` [Compound 10, (S)-11-(aminomethyl)-4,10-diethyl-8-fluoro-4-hydroxy-9-methyl-1,12-dihydro-14H-pyrano[3′,4′:6,7]indolizino[1,2-b]quinoline-3,14(4H)-dione], the IC50 in assay [1] stood at 15 nM; in [2], 7 nM; in assay [3], 54 nM; in [4] (96 h), 33 nM; in assay [5], 59 nM; in assay [6], 51 nM. For the same molecule, the IC50 turned out to be 95 nM in assay [7]; 149 nM in assay [8]; 33 nM in the assay on melanoma cells (A2058); 64 nM in assay [9]; 57 nM in [10]; 15 nM in assay [11].

For `C=Cc1ccc2nc3c(c(CN)c2c1)Cn1c-3cc2c(c1=O)COC(=O)[C@]2(O)CC` [Compound 33, (19S)-10-(aminomethyl)-19-ethyl-19-hydroxy-7-vinyl-17-oxa-3,13-diazapentacyclo[11.8.0.02,11.04,9.015,20]henicosa-1(21),2,4,6,8,10,15(20)-heptaene-14,18-dione], the IC50 was found to be 4 nM in assay [1] (setting [12]); 2 nM in assay [2] (setting [12]); 10 nM in assay [3] (setting [12]); 14 nM in assay [4] (setting [12]); 18 nM in assay [5] (setting [12]); 4 nM in [6] (setting [12]). Further, the IC50 in assay [7] (setting [12]) is 36 nM; in assay [8] (setting [12]), 85 nM; in the assay on melanoma cells (A2058) (setting [12]), 6 nM; in assay [9] (setting [12]), 11 nM; in assay [10] (setting [12]), 8 nM; in assay [11] (setting [12]), 2 nM.

For the molecule `CC[C@@]1(O)C(=O)OCc2c1cc1n(c2=O)Cc2c-1nc1cc3c(cc1c2Cn1cnc(CO)c1)OCO3` [Compound 7aj], the 50% inhibitory concentration (IC50) in [1] was found to be 34 nM; in [2] it was 14 nM; in [3], 99 nM; in assay [4] (96 h) it was 64 nM; in assay [5] it was 706 nM; in assay [6], 56 nM. Further, the IC50 in assay [7] is above 1000 nM; in [8] it was 81 nM; with melanoma cells (A2058) it was 57 nM; in [9], 103 nM; in [10] it was 55 nM; in assay [11], 16 nM.

These data come from patent US20230381321A1, “CAMPTOTHECIN CONJUGATES” (priority 2022, published 2023).
